Measurements: patent publication US20240116985A1, “STAPLED PEPTIDES AND METHODS THEREOF” (priority 2020, published 2024)
Read-outs that look alike come from different tables or passages of the source.

Experiments:
[1] = target: T1, full-length beta-Catenin (Uniprot ID P35222) (Homo sapiens, UniProt P35222); assay: Fluorescence polarization IC50 (beta-catenin / 5FAM-TCF4 10-53 competition); format: binding; settings: fluorescence polarization; read-out: beta-Catenin FP IC50
T1 construct: 10 nM full-length beta-Catenin (Uniprot ID P35222)
T1 sequence (P35222 1-781): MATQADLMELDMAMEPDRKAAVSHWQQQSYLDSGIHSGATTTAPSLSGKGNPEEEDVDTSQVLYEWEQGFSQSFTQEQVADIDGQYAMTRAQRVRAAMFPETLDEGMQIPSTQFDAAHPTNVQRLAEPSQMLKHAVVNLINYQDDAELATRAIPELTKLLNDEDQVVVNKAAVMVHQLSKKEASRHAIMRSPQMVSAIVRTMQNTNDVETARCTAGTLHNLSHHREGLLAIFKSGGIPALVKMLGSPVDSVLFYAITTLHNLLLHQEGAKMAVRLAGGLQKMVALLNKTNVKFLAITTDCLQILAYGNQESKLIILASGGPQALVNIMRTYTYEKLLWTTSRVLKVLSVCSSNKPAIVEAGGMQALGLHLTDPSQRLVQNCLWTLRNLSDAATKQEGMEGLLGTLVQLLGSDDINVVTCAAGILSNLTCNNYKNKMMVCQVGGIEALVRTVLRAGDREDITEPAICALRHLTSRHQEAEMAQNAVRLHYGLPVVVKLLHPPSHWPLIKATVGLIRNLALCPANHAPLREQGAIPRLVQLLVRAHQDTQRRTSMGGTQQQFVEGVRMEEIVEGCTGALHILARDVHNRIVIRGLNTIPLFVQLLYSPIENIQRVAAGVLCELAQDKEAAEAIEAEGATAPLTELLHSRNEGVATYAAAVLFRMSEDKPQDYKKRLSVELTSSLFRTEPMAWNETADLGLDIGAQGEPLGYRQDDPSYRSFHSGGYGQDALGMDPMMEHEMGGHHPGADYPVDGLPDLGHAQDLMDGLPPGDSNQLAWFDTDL

[2] = target: T2, beta-catenin/TCF4 engagement (Homo sapiens, UniProt P35222); assay: Nano-BRET target engagement assay (B-cat-Halo & TCF4-Luc in HEK293 cells); format: cell-based; settings: read-out: NanoBRET Abs IC50
T2 construct: expressed in transfected cells; host or cells: HEK293
T2 sequence (P35222 1-781): T1 sequence (P35222 1-781)

SMILES | IC50 [1] [nM] | IC50 [2] [nM] | IC50 ([2]; absolute IC50) [nM]
CCCCCCSSCCOC(=O)C[C@@H]1NC(=O)[C@]2(CC=CCCCC3(CCCC=CCCCOC(=O)N4CC[C@@](C(=O)N[C@@H](Cc5ccsc5)C(=O)N[C@@H](Cc5csc6ccccc56)C(=O)N[C@@H](CCC(N)=O)C(N)=O)(C4)NC(=O)[C@H](CC(C)C)NC(=O)[C@H](Cc4ccccc4)NC(=O)[C@H](C)NC(=O)[C@H](C)NC(=O)[C@H](CC(=O)O)NC(=O)[C@H](CC(=O)O)NC3=O)NC(=O)[C@H](CC(C)(C)C)NC1=O)CCCN2C(C)=O (stereo partly drawn) [I-1959, Ac-PL3-[EtSSHex]AspE-Npg-B5-Asp-Asp-Ala-Ala-Phe-Leu-PyrS2-3Thi-BztA-Gln-NH2] | 412 | > 20000 | 
CC(=O)N1CCC[C@]12CC=CCCCC1(CCCC=CCCCOC(=O)N3CC[C@@](C(=O)N[C@@H](Cc4ccsc4)C(=O)N[C@@H](Cc4csc5ccccc45)C(=O)N[C@H](C(N)=O)C(C)C)(C3)NC(=O)[C@H]([C@@H](C)O)NC(=O)[C@H](Cc3ccccc3)NC(=O)[C@H](C)NC(=O)[C@H](CCCCNC(C)C)NC(=O)[C@H](CN(CC(=O)O)CC(F)(F)F)NC(=O)[C@H](CC(=O)O)NC1=O)NC(=O)[C@H](CC(C)(C)C)NC(=O)[C@H](CC(=O)O)NC2=O (stereo partly drawn) [I-1764, Ac-PL3-Asp-Npg-B5-Asp-TfeGA-iPrLys-Ala-Phe-Thr-PyrS2-3Thi-BztA-Val-NH2] | 23 |  | > 20000
CC(=O)N1CCC[C@]12CC=CCCCC1(CCCC=CCCCOC(=O)N3CC[C@@](C(=O)N[C@@H](Cc4ccsc4)C(=O)N[C@@H](Cc4csc5ccccc45)C(=O)N[C@@H](CCC(N)=O)C(=O)N[C@@H](CCCCNC(=O)COCCOCCNC(=O)CC[C@@H](C)[C@H]4CC[C@H]5[C@@H]6CC[C@@H]7C[C@H](O)CC[C@]7(C)[C@H]6CC[C@]45C)C(N)=O)(C3)NC(=O)[C@H](CC(C)C)NC(=O)[C@H](Cc3ccccc3)NC(=O)[C@H](C)NC(=O)[C@H](C)NC(=O)[C@H](CC(=O)O)NC(=O)[C@H](CC(=O)O)NC1=O)NC(=O)[C@H](CC(C)(C)C)NC(=O)[C@H](CC(=O)O)NC2=O (stereo partly drawn) [I-1478, Ac-PL3-Asp-Npg-B5-Asp-Asp-Ala-Ala-Phe-Leu-PyrS2-3Thi-BztA-Gln-[lithocholate-PEG2]-Lys-NH2] | 75 |  | 17100
CC(=O)N1CCC[C@]12CC=CCCCC1(CCCC=CCCCOC(=O)N3CC[C@@](C(=O)N[C@@H](Cc4ccccc4Cl)C(=O)N[C@@H](Cc4csc5ccccc45)C(=O)N[C@@H](CCO)C(N)=O)(C3)NC(=O)[C@H](CO)NC(=O)[C@H](Cc3ccccc3)NC(=O)[C@H](C)NC(=O)[C@H](C)NC(=O)[C@H](CC(=O)O)NC(=O)[C@H](CC(=O)O)NC1=O)NC(=O)[C@H](CC1CCCCC1)NC(=O)[C@H](CC(=O)O)NC2=O (stereo partly drawn) [I-1137, Ac-PL3-Asp-Cha-B5-Asp-Asp-Ala-Ala-Phe-Ser-PyrS2-2C1F-BztA-Hse-NH2] | 8 |  | 12000
CCNC(=O)[C@H](CCC(N)=O)NC(=O)[C@H](Cc1csc2ccccc12)NC(=O)[C@H](Cc1ccsc1)NC(=O)[C@]12CCN(C1)C(=O)OCCCC=CCCCC1(CCCC=CC[C@]3(CCCN3C(C)=O)C(=O)N[C@@H](CC(=O)O)C(=O)N[C@@H](CC(C)(C)C)C(=O)N1)C(=O)N[C@@H](CC(=O)O)C(=O)N[C@@H](CN(CC(=O)O)CC(F)(F)F)C(=O)N[C@@H](C)C(=O)N[C@@H](C)C(=O)N[C@@H](Cc1ccccc1)C(=O)N[C@@H](CC(C)C)C(=O)N2 (stereo partly drawn) [I-1678, Ac-PL3-Asp-Npg-B5-Asp-TfeGA-Ala-Ala-Phe-Leu-PyrS2-3Thi-BztA-Gln-NHEt] | 32 |  | 9700
CC(=O)N1CCC[C@]12CC=CCCCC1(CCCC=CCCCCCC[C@@](C)(C(=O)N[C@@H](Cc3ccccc3)C(=O)N[C@@H](Cc3csc4ccccc34)C(=O)N[C@@H](CCC(N)=O)C(N)=O)NC(=O)[C@H](CCO)NC(=O)[C@H](Cc3ccccc3)NC(=O)[C@H](C)NC(=O)[C@H](C)NC(=O)[C@H](CCC(=O)O)NC(=O)[C@H](CC(=O)O)NC1=O)NC(=O)[C@H](CCO)NC(=O)[C@H](CC(=O)O)NC2=O (stereo partly drawn) [I-1547, Ac-PL3-Asp-Hse-B5-Asp-Glu-Ala-Ala-Phe-Hse-S8-Phe-BztA-Gln-NH2] | 68 |  | > 20000

Second part, the compound after the results:

IC50 [1] [nM] | IC50 [2] [nM] | IC50 ([2]; absolute IC50) [nM] | SMILES
5 |  | 24300 | CC(=O)N1CCC[C@]12CC=CCCCC1(CCCC=CCCCOC(=O)N3CC[C@@](C(=O)N[C@@H](Cc4ccsc4)C(=O)N[C@@H](Cc4csc5ccccc45)C(=O)N[C@@H](CCC(N)=O)C(N)=O)(C3)NC(=O)[C@H](CC(C)C)NC(=O)[C@H](Cc3ccccc3)NC(=O)[C@H](C)NC(=O)[C@H](C)NC(=O)[C@H](CN(CC(=O)O)C(=O)c3ccccn3)NC(=O)[C@H](CC(=O)O)NC1=O)NC(=O)[C@H](CC(C)(C)C)NC(=O)[C@H](CC(=O)O)NC2=O (stereo partly drawn) [I-2237, Ac-PL3-Asp-Npg-B5-Asp-[Pic]GA-Ala-Ala-Phe-Leu-PyrS2-3Thi-BztA-Gln-NH2]
12 |  | 16300 | CC(=O)N1CCC[C@]12CC=CCCCC1(CCCC=CCCCOC(=O)N3CC[C@@](C(=O)N[C@@H](Cc4ccsc4)C(=O)N[C@@H](Cc4ccc(Cl)cc4)C(=O)N[C@@H](CCC(N)=O)C(N)=O)(C3)NC(=O)[C@H](CC(C)C)NC(=O)[C@H](Cc3ccccc3)NC(=O)[C@H](C)NC(=O)[C@H](C)NC(=O)[C@H](Cc3cccc(C(=O)O)c3)NC(=O)[C@H](CC(=O)O)NC1=O)NC(=O)[C@H](CC(C)(C)C)NC(=O)[C@H](CC(=O)O)NC2=O (stereo partly drawn) [I-2220, Ac-PL3-Asp-Npg-B5-Asp-3COOHF-Ala-Ala-Phe-Leu-PyrS2-3Thi-4C1F-Gln-NH2]
7 | 7100 |  | CC(=O)N1CCC[C@]12CC=CCCCC1(CCCC=CCCCOC(=O)N3CC[C@@](C(=O)N[C@@H](Cc4ccsc4)C(=O)N[C@@H](Cc4csc5ccccc45)C(=O)N[C@@H](C)C(N)=O)(C3)NC(=O)[C@H](CC(C)C)NC(=O)[C@H](Cc3ccccc3)NC(=O)[C@H](C)NC(=O)[C@H](CCC(N)=O)NC(=O)[C@H](Cc3ccc(F)c(C(=O)O)c3)NC(=O)[C@H](CC(=O)O)NC1=O)NC(=O)[C@H](CC(C)(C)C)NC(=O)[C@H](CC(=O)O)NC2=O (stereo partly drawn) [I-2206, Ac-PL3-Asp-Npg-B5-Asp-4F3COOHF-Gln-Ala-Phe-Leu-PyrS2-3Thi-BztA-Ala-NH2]
13 | 11600 |  | CC(=O)N1CCC[C@]12CC=CCCCC1(CCCC=CCCCOC(=O)N3CC[C@@](C(=O)N[C@@H](Cc4ccsc4)C(=O)N[C@@H](Cc4csc5ccccc45)C(=O)N[C@@H](CCC(N)=O)C(N)=O)(C3)NC(=O)[C@H](CC(C)C)NC(=O)[C@H](Cc3ccccc3)NC(=O)[C@H](C)NC(=O)[C@H](C)NC(=O)[C@H](CCn3cc(-c4ccccc4C(=O)O)nn3)NC(=O)[C@H](CC(=O)O)NC1=O)NC(=O)[C@H](CC(C)(C)C)NC(=O)[C@H](CC(=O)O)NC2=O (stereo partly drawn) [I-2081, Ac-PL3-Asp-Npg-B5-Asp-[2COOHPh]TriAzDab-Ala-Ala-Phe-Leu-PyrS2-3Thi-BztA-Gln-NH2]
267 |  | > 20000 | CC(=O)N1CCC[C@]12CC=CCCCC1(CCCC=CCCCOC(=O)N3CC[C@@](C(=O)N[C@@H](Cc4ccsc4)C(=O)N[C@@H](Cc4csc5ccccc45)C(=O)N[C@@H](CCC(N)=O)C(N)=O)(C3)NC(=O)[C@H](CC(N)=O)NC(=O)[C@H](Cc3ccccc3)NC(=O)[C@H](C)NC(=O)C3(CCCC3)NC(=O)[C@H]([C@@H](C)O)NC(=O)[C@H](CC(N)=O)NC1=O)NC(=O)[C@H](CC(C)(C)C)NC(=O)[C@H](CC(=O)O)NC2=O (stereo partly drawn) [I-2493, Ac-PL3-Asp-Npg-B5-Asn-Thr-CyLeu-Ala-Phe-Asn-PyrS2-3Thi-BztA-Gln-NH2]
263 | > 20000 |  | CC(=O)N1CCC[C@]12CC=CCCCC1(CCCC=CCCCOC(=O)N3CCC(C(=O)N[C@@H](Cc4ccccc4C(F)(F)F)C(=O)N[C@@H](Cc4csc5ccccc45)C(=O)N[C@@H](CCC(N)=O)C(N)=O)(CC3)NC(=O)[C@H](CC(C)C)NC(=O)[C@H](Cc3ccccc3)NC(=O)[C@H](C)NC(=O)[C@H](C)NC(=O)[C@H](Cc3cccc(C(=O)O)c3)NC(=O)[C@H](CC(=O)O)NC1=O)NC(=O)[C@H](CC(C)(C)C)NC(=O)[C@H](CC(=O)O)NC2=O (stereo partly drawn) [I-2582, Ac-PL3-Asp-Npg-B5-Asp-3COOHF-Ala-Ala-Phe-Leu-SPip2-2F3MeF-BztA-Gln-NH2]
5 |  | 5000 | CC(=O)N1CCC[C@]12CC=CCCCC1(CCCC=CCCCOC(=O)N3CC[C@@](C(=O)N[C@@H](Cc4ccccc4C(F)(F)F)C(=O)N[C@@H](Cc4csc5ccccc45)C(=O)N[C@@H](CO)C(N)=O)(C3)NC(=O)[C@H](CC(C)C)NC(=O)[C@H](Cc3ccccc3)NC(=O)[C@H](C)NC(=O)[C@H](C)NC(=O)[C@H](Cn3cc(CCC(=O)O)nn3)NC(=O)[C@H](CC(=O)O)NC1=O)NC(=O)[C@H](CC(C)(C)C)NC(=O)[C@H](CC(=O)O)NC2=O (stereo partly drawn) [I-2371, Ac-PL3-Asp-Npg-B5-Asp-[CH2CH2CO2H]TriAzDap-Ala-Ala-Phe-Leu-PyrS2-2F3MeF-BztA-Ser-NH2]
